Measurements taken from ChEMBL document CHEMBL3885881, “DrugMatrix”.

Organism: Rattus norvegicus
Assay: DrugMatrix - Regimen: Daily Repeat
Type: toxicity, organism-based, Sprague-Dawley
Parameters: regimen Daily Repeat, gender Male, age 6-8 weeks
Conditions: in vivo, po, route oral GAVAGE, […]; for ABSOLUTE BASOPHIL / ABSOLUTE EOSINOPHIL / ABSOLUTE LYMPHOCYTE / ABSOLUTE MONOCYTE / ABSOLUTE SEGMENTED NEUTROPHIL / BASOPHIL / EOSINOPHIL / ERYTHROCYTE COUNT / HEMATOCRIT / HEMOGLOBIN / LEUKOCYTE COUNT / LYMPHOCYTE / MEAN CORPUSCULAR HEMOGLOBIN / MEAN CORPUSCULAR HEMOGLOBIN CONCENTRATION / MEAN CORPUSCULAR VOLUME / MONOCYTE / NEUTROPHIL / NUCLEATED RED BLOOD CELLS / PLATELET COUNT: tissue Blood; for ALANINE AMINOTRANSFERASE / ALKALINE PHOSPHATASE / ASPARTATE AMINOTRANSFERASE / BLOOD UREA NITROGEN / CARBON DIOXIDE / CHLORIDE / CHOLESTEROL / CREATINE PHOSPHOKINASE / CREATININE / GLUCOSE / LACTATE DEHYDROGENASE / LIPASE / PHOSPHORUS / POTASSIUM / SODIUM / TOTAL BILIRUBIN / TOTAL PROTEIN / URIC ACID: tissue Plasma
[1] = 0 mg/kg, 72 h, dose level Control, time 3 day
[2] = 0 mg/kg, 120 h, dose level Control, time 5 day
[3] = 22 mg/kg, 72 h, dose level High, time 3 day

OCCN1CCN(CCCN2c3ccccc3Sc3ccc(C(F)(F)F)cc32)CC1 [FLUPHENAZINE]
ABSOLUTE BASOPHIL [1]: 0 CELLS/uL | ABSOLUTE EOSINOPHIL [1]: 0 CELLS/uL | ABSOLUTE LYMPHOCYTE [1]: 6275.67 CELLS/uL | ABSOLUTE MONOCYTE [1]: 40.67 CELLS/uL | ABSOLUTE SEGMENTED NEUTROPHIL [1]: 633.67 CELLS/uL | BASOPHIL [1]: 0% | EOSINOPHIL [1]: 0% | ERYTHROCYTE COUNT [1]: 5.2 x10E6/uL | HEMATOCRIT [1]: 32.78% | HEMOGLOBIN [1]: 12.98 G/DL | LEUKOCYTE COUNT [1]: 6.95 x10E3/uL | LYMPHOCYTE [1]: 90.17% | MEAN CORPUSCULAR HEMOGLOBIN [1]: 24.97 pg | MEAN CORPUSCULAR HEMOGLOBIN CONCENTRATION [1]: 39.62 G/DL | MEAN CORPUSCULAR VOLUME [1]: 63.03 fL | MONOCYTE [1]: 0.67% | NEUTROPHIL [1]: 9.17% | NUCLEATED RED BLOOD CELLS [1]: 0 /100WBC | PLATELET COUNT [1]: 1082.83 x10E3/uL | ALANINE AMINOTRANSFERASE [1]: 69.67 u/L | ALKALINE PHOSPHATASE [1]: 430.5 u/L | ASPARTATE AMINOTRANSFERASE [1]: 90.83 u/L | BLOOD UREA NITROGEN [1]: 13 mg/dL | CARBON DIOXIDE [1]: 33 mmol/L | CHLORIDE [1]: 99.17 MEQ/L | CHOLESTEROL [1]: 70.5 mg/dL | CREATINE PHOSPHOKINASE [1]: 253.33 u/L | CREATININE [1]: 0.13 mg/dL | GLUCOSE [1]: 157.17 mg/dL | LACTATE DEHYDROGENASE [1]: 85 u/L | LIPASE [1]: 10 u/L | PHOSPHORUS [1]: 10.2 mg/dL | POTASSIUM [1]: 5.78 MEQ/L | SODIUM [1]: 144.12 MEQ/L | TOTAL BILIRUBIN [1]: 0.2 mg/dL | TOTAL PROTEIN [1]: 5.8 G/DL | URIC ACID [1]: 0.8 mg/dL | ABSOLUTE BASOPHIL [2]: 0 CELLS/uL | ABSOLUTE EOSINOPHIL [2]: 0 CELLS/uL | ABSOLUTE LYMPHOCYTE [2]: 10431 CELLS/uL | ABSOLUTE MONOCYTE [2]: 90.5 CELLS/uL | ABSOLUTE SEGMENTED NEUTROPHIL [2]: 1111.83 CELLS/uL | BASOPHIL [2]: 0% | EOSINOPHIL [2]: 0% | ERYTHROCYTE COUNT [2]: 5.51 x10E6/uL | HEMATOCRIT [2]: 34.67% | HEMOGLOBIN [2]: 13.5 G/DL | LEUKOCYTE COUNT [2]: 11.63 x10E3/uL | LYMPHOCYTE [2]: 89.67% | MEAN CORPUSCULAR HEMOGLOBIN [2]: 24.5 pg | MEAN CORPUSCULAR HEMOGLOBIN CONCENTRATION [2]: 38.95 G/DL | MEAN CORPUSCULAR VOLUME [2]: 62.87 fL | MONOCYTE [2]: 0.67% | NEUTROPHIL [2]: 9.67% | NUCLEATED RED BLOOD CELLS [2]: 0 /100WBC | PLATELET COUNT [2]: 1052.67 x10E3/uL | ALANINE AMINOTRANSFERASE [2]: 54.67 u/L | ALKALINE PHOSPHATASE [2]: 359.83 u/L | ASPARTATE AMINOTRANSFERASE [2]: 83 u/L | BLOOD UREA NITROGEN [2]: 13.5 mg/dL | CARBON DIOXIDE [2]: 27.17 mmol/L | CHLORIDE [2]: 98.5 MEQ/L | CHOLESTEROL [2]: 66.83 mg/dL | CREATINE PHOSPHOKINASE [2]: 256.17 u/L | CREATININE [2]: 0.19 mg/dL | GLUCOSE [2]: 171.33 mg/dL | LACTATE DEHYDROGENASE [2]: 91.5 u/L | LIPASE [2]: 10.5 u/L | PHOSPHORUS [2]: 8.72 mg/dL | POTASSIUM [2]: 5.34 MEQ/L | SODIUM [2]: 142.53 MEQ/L | TOTAL BILIRUBIN [2]: 0.2 mg/dL | TOTAL PROTEIN [2]: 6.05 G/DL | URIC ACID [2]: 0.6 mg/dL | ABSOLUTE BASOPHIL [3]: 0 CELLS/uL | ABSOLUTE EOSINOPHIL [3]: 0 CELLS/uL | ABSOLUTE LYMPHOCYTE [3]: 7819 CELLS/uL | ABSOLUTE MONOCYTE [3]: 96.67 CELLS/uL | ABSOLUTE SEGMENTED NEUTROPHIL [3]: 384.33 CELLS/uL | BASOPHIL [3]: 0% | EOSINOPHIL [3]: 0% | ERYTHROCYTE COUNT [3]: 6.13 x10E6/uL | HEMATOCRIT [3]: 39.3% | HEMOGLOBIN [3]: 15.37 G/DL | LEUKOCYTE COUNT [3]: 8.3 x10E3/uL | LYMPHOCYTE [3]: 94.67% | MEAN CORPUSCULAR HEMOGLOBIN [3]: 25.03 pg | MEAN CORPUSCULAR HEMOGLOBIN CONCENTRATION [3]: 39.07 G/DL | MEAN CORPUSCULAR VOLUME [3]: 64.13 fL | MONOCYTE [3]: 1% | NEUTROPHIL [3]: 4.33% | NUCLEATED RED BLOOD CELLS [3]: 0 /100WBC | PLATELET COUNT [3]: 1324.33 x10E3/uL | ALANINE AMINOTRANSFERASE [3]: 35.33 u/L | ALKALINE PHOSPHATASE [3]: 274 u/L | ASPARTATE AMINOTRANSFERASE [3]: 77 u/L | BLOOD UREA NITROGEN [3]: 16.33 mg/dL | CARBON DIOXIDE [3]: 34 mmol/L | CHLORIDE [3]: 108.33 MEQ/L | CHOLESTEROL [3]: 92.67 mg/dL | CREATINE PHOSPHOKINASE [3]: 280 u/L | CREATININE [3]: 0.13 mg/dL | GLUCOSE [3]: 154 mg/dL | LACTATE DEHYDROGENASE [3]: 79.33 u/L | LIPASE [3]: 9.67 u/L | PHOSPHORUS [3]: 9.4 mg/dL | POTASSIUM [3]: 5.57 MEQ/L | SODIUM [3]: 156.07 MEQ/L | TOTAL BILIRUBIN [3]: 0.17 mg/dL | TOTAL PROTEIN [3]: 6.13 G/DL | URIC ACID [3]: 0.53 mg/dL
